This experiment concerns the target T1, PKN2 (PRK2) (Homo sapiens, UniProt Q16513).
T1 construct: purchased Thermo Fisher Scientific (Life Technologies) SelectScreen
The experiment can be described thus: SelectScreen LanthaScreen. It is filed as binding. The settings on record: read-out: % displacement. In outline:
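NU5455 was profiled across the SelectScreen Broad panel of kinase activity and binding assays. Z'LYTE reactions such as CSF1R ran at apparent Km ATP, while the Adapta CAMK1 assay used ATP listed as 10. Values are given as percent.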

Molecules are shown by their SMILES.

T1 sequence (Q16513 whole entry): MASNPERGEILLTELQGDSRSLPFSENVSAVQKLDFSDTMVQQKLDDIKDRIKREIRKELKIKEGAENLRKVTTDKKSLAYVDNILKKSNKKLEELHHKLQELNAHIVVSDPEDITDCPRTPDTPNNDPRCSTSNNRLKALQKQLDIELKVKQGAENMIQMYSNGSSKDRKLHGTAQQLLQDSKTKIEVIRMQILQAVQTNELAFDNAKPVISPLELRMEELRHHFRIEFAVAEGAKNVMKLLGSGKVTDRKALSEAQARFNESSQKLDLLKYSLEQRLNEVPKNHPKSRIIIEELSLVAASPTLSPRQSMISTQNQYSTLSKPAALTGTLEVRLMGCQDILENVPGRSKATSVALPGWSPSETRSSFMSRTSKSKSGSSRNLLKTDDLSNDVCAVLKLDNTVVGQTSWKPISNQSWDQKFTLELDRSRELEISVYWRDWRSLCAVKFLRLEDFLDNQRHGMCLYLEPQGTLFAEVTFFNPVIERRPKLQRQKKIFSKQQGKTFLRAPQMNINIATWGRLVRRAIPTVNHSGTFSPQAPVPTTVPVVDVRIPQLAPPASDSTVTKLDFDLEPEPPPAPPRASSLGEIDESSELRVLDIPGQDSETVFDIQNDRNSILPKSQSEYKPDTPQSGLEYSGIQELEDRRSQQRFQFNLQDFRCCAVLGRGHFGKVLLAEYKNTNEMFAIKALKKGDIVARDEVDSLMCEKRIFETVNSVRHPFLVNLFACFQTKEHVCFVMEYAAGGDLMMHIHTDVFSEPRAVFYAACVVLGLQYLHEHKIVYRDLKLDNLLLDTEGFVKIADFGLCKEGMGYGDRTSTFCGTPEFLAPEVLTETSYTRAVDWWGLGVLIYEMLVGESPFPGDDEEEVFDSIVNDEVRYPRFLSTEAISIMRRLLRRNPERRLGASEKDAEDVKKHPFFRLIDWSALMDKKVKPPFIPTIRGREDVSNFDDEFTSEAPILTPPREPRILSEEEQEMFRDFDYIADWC

For `CN(C(=O)CN1CCOCC1)c1ccc2sc3c(-c4cccc5c(=O)cc(N6CC7CCC(C6)O7)oc45)cccc3c2c1` [NU5455], the inhibition at 1 µM is -1%.

The values above are taken from publication PMC6934184, “Selective DNA-PKcs inhibition extends the therapeutic index of localized radiotherapy and chemotherapy” (The Journal of Clinical Investigation, 2019).
